Legend:
Assay type in all cases: cell-based
Mino cells = assay: Antiproliferative effect, MTS cell viability assay, Mino cells; conditions: Homo sapiens, MINO, Mino mantle cell lymphoma cells; read-out: IC50 (anti-proliferation) Mino cells
Summary of the method: (§1)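 Readout was MTS-derived formazan absorbance (490 nm) reflecting metabolically active cells. Treatment lasted 72 h over a 0–10 μM range (0.001, 0.01, 0.1, 1, 10 μM) in JeKo-1 and Mino B-cell malignancy cells.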

JeKo-1 cells = assay: Antiproliferative effect, MTS cell viability assay, JeKo-1 cells; conditions: Homo sapiens; JeKo-1 mantle cell lymphoma cells; read-out: IC50 (anti-proliferation) JeKO-1 cells
Summary of the method: as §1

BTK = BTK (Homo sapiens, UniProt Q06187); assay: BTK degradation, DC50 and Dmax of Table 1 (cell line not given); design: endogenous in cells; conditions: for DC50: concentration giving 50% reduction of BTK expression level
Sequence of BTK (Q06187 whole entry): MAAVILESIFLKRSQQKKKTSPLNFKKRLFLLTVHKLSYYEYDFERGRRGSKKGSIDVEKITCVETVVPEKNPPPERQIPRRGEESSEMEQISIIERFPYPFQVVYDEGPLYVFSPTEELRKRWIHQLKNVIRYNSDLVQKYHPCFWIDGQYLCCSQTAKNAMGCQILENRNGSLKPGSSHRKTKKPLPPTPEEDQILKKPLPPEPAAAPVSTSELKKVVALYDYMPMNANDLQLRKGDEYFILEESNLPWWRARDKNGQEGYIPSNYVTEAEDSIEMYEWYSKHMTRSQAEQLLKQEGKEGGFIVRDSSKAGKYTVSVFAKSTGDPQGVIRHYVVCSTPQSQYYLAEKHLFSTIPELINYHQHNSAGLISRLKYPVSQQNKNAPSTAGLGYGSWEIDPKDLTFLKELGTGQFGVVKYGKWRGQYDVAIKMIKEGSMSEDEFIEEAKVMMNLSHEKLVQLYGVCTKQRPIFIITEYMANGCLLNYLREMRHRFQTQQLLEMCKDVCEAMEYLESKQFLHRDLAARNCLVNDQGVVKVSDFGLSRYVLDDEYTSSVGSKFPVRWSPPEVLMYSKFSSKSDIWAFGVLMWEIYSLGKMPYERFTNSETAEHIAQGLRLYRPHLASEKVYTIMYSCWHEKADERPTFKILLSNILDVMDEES

SMILES	IC50 (Mino cells)	IC50 (JeKo-1 cells)	Dmax (BTK)	DC50 (BTK)
Nc1ncnc2c1c(-c1ccc(Oc3ccccc3)cc1)nn2C1CCN(C(=O)N2CCN(CCN3CCN(c4ccc5c(c4)C(=O)N(C4CCC(=O)NC4=O)C5=O)CC3)CC2)CC1 (stereo not drawn) [Compound 95, 5-(4-(2-(4-(4-(4-amino-3-(4-phenoxyphenyl)-1H-pyrazolo[3,4-d]pyrimidin-1-yl)piperidine-1-carbonyl)piperazin-1-yl)ethyl)piperazin-1-yl)-2-(2,6-dioxopiperidin-3-yl)isoindoline-1,3-dione]	1000 to 10000 nM	< 1 µM	> 90%	10 to 50 nM
Nc1ncnc2c1c(-c1ccc(Oc3ccccc3)cc1)nn2[C@@H]1CCCN(C2CCN(C(=O)N3CCC(CC4CCN(c5ccc6c(c5)CN(C5CCC(=O)NC5=O)C6=O)CC4)CC3)CC2)C1 (stereo partly drawn) [Compound 168, 3-(5-(4-((1-((R)-3-(4-amino-3-(4-phenoxyphenyl)-1H-pyrazolo[3,4-d]pyrimidin-1-yl)-[1,4′-bipiperidine]-1′-carbonyl)piperidin-4-yl)methyl)piperidin-1-yl)-1-oxoisoindolin-2-yl)piperidine-2,6-dione]	< 1000 nM	1 to 10 µM	> 90%	10 to 50 nM
Nc1ncnc2c1c(-c1ccc(Oc3ccccc3)cc1)nn2[C@@H]1CCCN(C2CCN(CCN3CCN(c4ccc5c(c4)C(=O)N(C4CCC(=O)NC4=O)C5=O)CC3)CC2)C1 (stereo partly drawn) [Compound 147, 5-(4-(2-((R)-3-(4-amino-3-(4-phenoxyphenyl)-1H-pyrazolo[3,4-d]pyrimidin-1-yl)-[1,4′-bipiperidin]-1′-yl)ethyl)piperazin-1-yl)-2-(2,6-dioxopiperidin-3-yl)isoindoline-1,3-dione]	> 10000 nM	> 10 µM	> 75%	10 to 50 nM
Nc1ncnc2c1c(-c1ccc(Oc3ccccc3)cc1)nn2[C@@H]1CCCN(C2CCN(C(=O)N3CCC(CCC4CCN(c5ccc6c(c5)C(=O)N(C5CCC(=O)NC5=O)C6=O)CC4)CC3)CC2)C1 (stereo partly drawn) [Compound 185, 5-(4-(2-(1-((R)-3-(4-amino-3-(4-phenoxyphenyl)-1H-pyrazolo[3,4-d]pyrimidin-1-yl)-[1,4′-bipiperidine]-1′-carbonyl)piperidin-4-yl)ethyl)piperidin-1-yl)-2-(2,6-dioxopiperidin-3-yl)isoindoline-1,3-dione]	> 10000 nM	> 10 µM	> 75%	10 to 50 nM
Nc1ncnc2c1c(-c1ccc(Oc3ccccc3)cc1)nn2[C@@H]1CCCN(C(=O)N2CCN(CC3CCN(c4ccc5c(c4)CN(C4CCC(=O)NC4=O)C5=O)CC3)CC2)C1 (stereo partly drawn) [Compound 58, 3-(5-(4-((4-((R)-3-(4-amino-3-(4-phenoxyphenyl)-1H-pyrazolo[3,4-d]pyrimidin-1-yl)piperidine-1-carbonyl)piperazin-1-yl)methyl)piperidin-1-yl)-1-oxoisoindolin-2-yl)piperidine-2,6-dione]	< 1000 nM	< 1 µM	> 90%	10 to 50 nM
Nc1ncnc2c1c(-c1ccc(Oc3ccccc3)cc1)nn2[C@@H]1CCCN(C2CCN(C(=O)N3CCN(CCN4CCN(c5ccc6c(c5)C(=O)N(C5CCC(=O)NC5=O)C6=O)CC4)CC3)CC2)C1 (stereo partly drawn) [Compound 175, 5-(4-(2-(4-((R)-3-(4-amino-3-(4-phenoxyphenyl)-1H-pyrazolo[3,4-d]pyrimidin-1-yl)-[1,4′-bipiperidine]-1′-carbonyl)piperazin-1-yl)ethyl)piperazin-1-yl)-2-(2,6-dioxopiperidin-3-yl)isoindoline-1,3-dione]	1000 to 10000 nM	1 to 10 µM	> 90%	10 to 50 nM
Nc1ncnc2c1c(-c1ccc(Oc3ccccc3)cc1)nn2[C@@H]1CCCN(CC2CCN(CC3CCN(c4ccc5c(c4)CN(C4CCC(=O)NC4=O)C5=O)CC3)CC2)C1 (stereo partly drawn) [Compound 130, 3-(5-(4-((4-(((R)-3-(4-amino-3-(4-phenoxyphenyl)-1H-pyrazolo[3,4-d]pyrimidin-1-yl)piperidin-1-yl)methyl)piperidin-1-yl)methyl)piperidin-1-yl)-1-oxoisoindolin-2-yl)piperidine-2,6-dione]	1000 to 10000 nM	1 to 10 µM	> 90%	10 to 50 nM
Nc1ncnc2c1c(-c1ccc(Oc3ccccc3)cc1)nn2[C@@H]1CCCN(C(=O)N2CCC(N3CCC(c4ccc5c(c4)C(=O)N(C4CCC(=O)NC4=O)C5=O)CC3)CC2)C1 (stereo partly drawn) [Compound 53, 5-(1′-((R)-3-(4-amino-3-(4-phenoxyphenyl)-1H-pyrazolo[3,4-d]pyrimidin-1-yl)piperidine-1-carbonyl)-[1,4′-bipiperidin]-4-yl)-2-(2,6-dioxopiperidin-3-yl)isoindoline-1,3-dione]	< 1000 nM	1 to 10 µM	> 90%	< 10 nM
Nc1ncnc2c1c(-c1ccc(Oc3ccccc3)cc1)nn2[C@@H]1CCCN(C(=O)N2CCN(CCC3CCN(c4ccc5c(c4)C(=O)N(C4CCC(=O)NC4=O)C5=O)CC3)CC2)C1 (stereo partly drawn) [Compound 67, 5-(4-(2-(4-((R)-3-(4-amino-3-(4-phenoxyphenyl)-1H-pyrazolo[3,4-d]pyrimidin-1-yl)piperidine-1-carbonyl)piperazin-1-yl)ethyl)piperidin-1-yl)-2-(2,6-dioxopiperidin-3-yl)isoindoline-1,3-dione]	1000 to 10000 nM	1 to 10 µM	> 90%	< 10 nM
Nc1ncnc2c1c(-c1ccc(Oc3ccccc3)cc1)nn2[C@@H]1CCCN(C2CCN(C(=O)N3CCC(CCCN4CCN(c5ccc6c(c5)CN(C5CCC(=O)NC5=O)C6=O)CC4)CC3)CC2)C1 (stereo partly drawn) [Compound 194, 3-(5-(4-(3-(1-((R)-3-(4-amino-3-(4-phenoxyphenyl)-1H-pyrazolo[3,4-d]pyrimidin-1-yl)-[1,4′-bipiperidine]-1′-carbonyl)piperidin-4-yl)propyl)piperazin-1-yl)-1-oxoisoindolin-2-yl)piperidine-2,6-dione]	1000 to 10000 nM	1 to 10 µM	> 75%	10 to 50 nM
Nc1ncnc2c1c(-c1ccc(Oc3ccccc3)cc1)nn2[C@@H]1CCCN(C(=O)N2CCC(CCN3CCC(c4ccc5c(c4)C(=O)N(C4CCC(=O)NC4=O)C5=O)CC3)CC2)C1 (stereo partly drawn) [Compound 73, 5-(1-(2-(1-((R)-3-(4-amino-3-(4-phenoxyphenyl)-1H-pyrazolo[3,4-d]pyrimidin-1-yl)piperidine-1-carbonyl)piperidin-4-yl)ethyl)piperidin-4-yl)-2-(2,6-dioxopiperidin-3-yl)isoindoline-1,3-dione]	1000 to 10000 nM	> 10 µM	> 90%	10 to 50 nM
Nc1ncnc2c1c(-c1ccc(Oc3ccccc3)cc1)nn2[C@@H]1CCCN(C(=O)N2CCC(CCN3CCN(c4ccc5c(c4)CN(C4CCC(=O)NC4=O)C5=O)CC3)CC2)C1 (stereo partly drawn) [Compound 64, 3-(5-(4-(2-(1-((R)-3-(4-amino-3-(4-phenoxyphenyl)-1H-pyrazolo[3,4-d]pyrimidin-1-yl)piperidine-1-carbonyl)piperidin-4-yl)ethyl)piperazin-1-yl)-1-oxoisoindolin-2-yl)piperidine-2,6-dione]	< 1000 nM	1 to 10 µM	> 90%	< 10 nM

From US12139492B2 (Endotarget Inc., priority 2021, dated 2024)
